Data: PMC11053683, “Tuning of the Anti-Breast Cancer Activity of Betulinic Acid via Its Conversion to Ionic Liquids” (Pharmaceutics, 2024)
Like-named read-outs stand apart in the source and are kept apart here.

Columns and labels:
MCF-7 cells [1] = experiment: Cell morphology analysis by light microscopy; assay type: cell-based, human; conditions: MCF-7, 72 h, concentration close to IC50
Method: The changes in cell morphology after a 72 h treatment with BA and [AAOEt][BA] were observed under an inverted microscope (MEIJI, Japan) with objective 10 (Phase DM, MEIJI, Japan) and camera Optikam B1 Digital (Optika, Ponteranica, Bergamo, Italy).

MCF-7 cells [2] = experiment: Colony formation (clonogenic) assay; assay type: cell-based, human; conditions: for effect on MCF-7 colony formation: 2.5–12.5 µM
Method: Clonogenic assays were performed, and surviving fractions were calculated as described by Franken et al.. Briefly, MCF-7 cells were seeded in 6-well plates at a concentration of 500 cells/well and allowed to adhere for 48 h and subsequently treated with 2.5–12.5 µM concentration of BA and selected BA-ILs (Day 1). The BA and BA-ILs were replenished every 4 days. On Day 10, cells were fixed with 10% formalin in phosphate-buffered saline (PBS), pH 7.4 for 30 min at room temperature (RT), washed with PBS and stained with 0.1% Crystal violet solution in ddH2O, 30 min, RT, followed by a final thorough wash in ddH2O. The colonies were then imaged and analyzed with the open-source platform Fiji.

[3] = Estimation of the water solubility (DMSO stock diluted with deionized water until sediment); assay type: physicochemical; parameters: key: “5×”: weak; “10×”: middle; “20×”:good’; “50×”: very good; “100×”: excellent; conditions: 1 mg in 100 μL DMSO, class by dilution factor
Method: The water solubility of betulinic acid and its derivatives was evaluated following the described method. For this purpose, 1 mg of the substance was dissolved in 100 μL of DMSO. The stock solution was diluted with 10 μL potions of deionized water until the sediment was observed. 10 μL portions were added to produce dilutions corresponding to 5 times, 10 times, 20 times, 50 times, and 100 times the original concentration.

MCF-7 cells [4] = experiment: MTT assay, cytotoxicity on MCF-7 cells
[5] = Thermal stability by thermogravimetric analysis (TG); assay type: physicochemical
Method: The test was conducted in the 25–1000 °C temperature range at a heating rate of 10 ° min^−1 under air (flow rate of 25 cm^−3min^−1) and nitrogen (flow rate of 10 cm^−3min^−1). The weight of the samples was 5–7 mg.

[6] = parameters: method as in PMID 28273859; conditions: model of intestinal mucus, compared to known drugs; cited from earlier work
[7] = parameters: method as in PMID 28273859; conditions: cited from earlier work
MCF-7 cells [8] = test system: MCF-7 cells
MCF-10A cells = experiment: MTT assay, cytotoxicity on MCF-10A cells; assay type: cell-based, human; conditions: 72 h
Method: The assay was conducted as described by Mosmann. […] Non-treated cancer cells were used as a control.

SMILES	Water Solubility [3]	TDTGmax (maximum decomposition temperature) ([5]; TG, 25–1000 °C, 10 °/min)	IC50 (MCF-7 cells [4]; MCF-7, 72 h, MTT)	TTGonset (onset of the thermal degradation) [5]	also measured
C=C(C)[C@@H]1CC[C@]2(C(=O)O)CC[C@]3(C)[C@H](CC[C@@H]4[C@@]5(C)CC[C@H](O)C(C)(C)[C@@H]5CC[C@]43C)[C@@H]12 [BA, Betulinic acid]	weak	358.7 °C			changes in cell numbers and morphology (MCF-7 cells [1]): reduction in cell numbers; effect on MCF-7 colony formation (MCF-7 cells [2]): did not inhibit MCF-7 colony formation; IC50 (MCF-7 cells [4]; Homo sapiens, MCF7, 72 h): 11.5 ± 1.8 µM; TTGonset (onset of the thermal degradation) ([5]; TG, 25–1000 °C, 10 °/min): 305.7 °C; permeability classification [6]: moderate to poorly permeable; bioavailability [7]: 2.3%
C=C(C)C1CCC2(C(=O)O)CCC3(C)C(CCC4C5(C)CCC(O)C(C)(C)C5CCC43C)C12.CCOC(=O)C(C)N (centres unmarked) [[AlaOEt][BA]]	weak	370.7 °C	12.7 ± 4.5 µM	92.0 °C	
C=C(C)C1CCC2(C(=O)O)CCC3(C)C(CCC4C5(C)CCC(O)C(C)(C)C5CCC43C)C12.CCOC(=O)CC(N)C(=O)OCC (centres unmarked) [[Asp(OEt)2][BA]]	middle	357.4 °C	8.9 ± 2.1 µM	119.8 °C	
C=C(C)C1CCC2(C(=O)O)CCC3(C)C(CCC4C5(C)CCC(O)C(C)(C)C5CCC43C)C12.CCOC(=O)C(N)CS (centres unmarked) [[CysOEt][BA]]	middle	359.2 °C	9.6 ± 3.8 µM	150.1 °C	
C=C(C)C1CCC2(C(=O)O)CCC3(C)C(CCC4C5(C)CCC(O)C(C)(C)C5CCC43C)C12.CCOC(=O)C(N)C(C)CC (centres unmarked) [[IleOEt][BA]]	weak	369.0 °C	8.5 ± 1.3 µM	127.5 °C	cytotoxicity / IC50 compared with BA (MCF-7 cells [8]): IC50 values lower than that of BA
C=C(C)C1CCC2(C(=O)O)CCC3(C)C(CCC4C5(C)CCC(O)C(C)(C)C5CCC43C)C12.CCOC(=O)C(N)CC(C)C (centres unmarked) [[LeuOEt][BA]]		359.4 °C	7.5 ± 1.2 µM	114.9 °C	
C=C(C)C1CCC2(C(=O)O)CCC3(C)C(CCC4C5(C)CCC(O)C(C)(C)C5CCC43C)C12.C=C(C)C1CCC2(C(=O)O)CCC3(C)C(CCC4C5(C)CCC(O)C(C)(C)C5CCC43C)C12.CCOC(=O)C(N)CCCCN (centres unmarked) [[LysOEt][BA]2]	good	368.8 °C	4.8 ± 1.3 µM	157.7 °C	changes in cell numbers and morphology (MCF-7 cells [1]): cell rounding and shrinkage; surviving fraction (cell clonogenicity) (MCF-7 cells [2]; MCF-7, 12.5 µM, vs non-treated control, Day 10): below 20%; clonogenic efficiency (MCF-7 cells [2]; MCF-7, compared to that of BA (abstract)): 20%; cell specificity of action (MCF-10A vs MCF-7) (MCF-10A cells): did not show any cell specificity; IC50 (MCF-10A cells; MCF-10A): 4 µM
C=C(C)C1CCC2(C(=O)O)CCC3(C)C(CCC4C5(C)CCC(O)C(C)(C)C5CCC43C)C12.CCOC(=O)C(N)CCCCN (centres unmarked) [[LysOEt][BA]]	very good	327.3 °C	12.9 ± 0.3 µM	144.0 °C	
C=C(C)C1CCC2(C(=O)O)CCC3(C)C(CCC4C5(C)CCC(O)C(C)(C)C5CCC43C)C12.CCOC(=O)C(N)CCSC (centres unmarked) [[MetOEt][BA]]	weak	358.6 °C	7.5 ± 0.3 µM		cytotoxicity / IC50 compared with BA (MCF-7 cells [4]; MCF-7, 72 h, MTT): IC50 values lower than that of BA; TTGonset (onset of the thermal degradation) ([5]; TG, 25–1000 °C, 10 °/min): 125.7 °C
C=C(C)C1CCC2(C(=O)O)CCC3(C)C(CCC4C5(C)CCC(O)C(C)(C)C5CCC43C)C12.CCOC(=O)C(N)Cc1ccccc1 (centres unmarked) [[PheOEt][BA]]	middle	360.1 °C	12.3 ± 1.7 µM	133.9 °C	cytotoxicity / IC50 compared with BA (MCF-7 cells [8]): cytotoxicity similar to BA
C=C(C)C1CCC2(C(=O)O)CCC3(C)C(CCC4C5(C)CCC(O)C(C)(C)C5CCC43C)C12.CCOC(=O)C1CCCN1 (centres unmarked) [[ProOEt][BA]]	weak	372.1 °C	7.6 ± 1.8 µM	121.6 °C	
C=C(C)C1CCC2(C(=O)O)CCC3(C)C(CCC4C5(C)CCC(O)C(C)(C)C5CCC43C)C12.CCOC(=O)C(N)CO (centres unmarked) [[SerOEt][BA]]	middle	364.1 °C	12.2 ± 2.6 µM	118.2 °C	
C=C(C)C1CCC2(C(=O)O)CCC3(C)C(CCC4C5(C)CCC(O)C(C)(C)C5CCC43C)C12.CCOC(=O)C(N)C(C)O (centres unmarked) [[ThrOEt][BA]]	middle	353.5 °C	8.2 ± 2.4 µM	109.0 °C	
C=C(C)C1CCC2(C(=O)O)CCC3(C)C(CCC4C5(C)CCC(O)C(C)(C)C5CCC43C)C12.CCOC(=O)C(N)Cc1c[nH]c2ccccc12 (centres unmarked) [[TrpOEt][BA]]	middle	359.8 °C	13.1 ± 0.4 µM		cytotoxicity / IC50 compared with BA (MCF-7 cells [8]): cytotoxicity similar to BA
C=C(C)C1CCC2(C(=O)O)CCC3(C)C(CCC4C5(C)CCC(O)C(C)(C)C5CCC43C)C12.CCOC(=O)C(N)Cc1ccc(O)cc1 (centres unmarked) [[TyrOEt][BA]]	weak	354.4 °C	14.2 ± 2.4 µM	202.3 °C	cytotoxicity / IC50 compared with BA (MCF-7 cells [8]): cytotoxicity similar to BA
C=C(C)C1CCC2(C(=O)O)CCC3(C)C(CCC4C5(C)CCC(O)C(C)(C)C5CCC43C)C12.CCOC(=O)C(N)C(C)C (centres unmarked) [[ValOEt][BA]]	weak	354.0 °C	25.7 ± 0.8 µM	116.8 °C	effect on MCF-7 colony formation (MCF-7 cells [2]): did not inhibit MCF-7 colony formation
